Patent publication US12222275B2, “Methods and systems for particle characterisation by imaging free-floating particle movement in liquid enviornment” (VRIJE UNIVERSITEIT BRUSSEL, priority 2019, dated 2025)
Entries after “also recorded” stand apart in the source; their conditions may differ.

Columns and labels:
[1] = test system: C. albicans DSY294; assay: Optical nanomotion detection (ONMD) of free yeast cells, antifungal susceptibility test; type: cell-based, Candida albicans
Excerpt: (§1) To track single cells, in the present example a cross-correlation image registration algorithm was used. The method was documented to efficiently track subtle modifications of keratin networks in living cells and displacements of myoblasts. The algorithm is based on the initial estimation of the cross-correlation peak between the first and every subsequent frame. […] Our program calculates the cell displacement for each frame and saves the trajectories of tracked cells as well as the root mean square of the displacement to an MS Excel file.
(§2) The cellular x-y movements were monitored by recording 12 s long movies (1000 frames) taken at a magnification of 400× (FIG. 13). By periodically recording these movies, temporal behavior of the cells was characterized as a function of different chemical and physical stimuli (FIG. 13A-B). To track the cellular movements of single cells, we used a cross-correlation image registration algorithm. The algorithm is based on the initial estimation of the cross-correlation peak between the first and every subsequent frame. It provides a numerical value for the image translation with a sub-pixel (sub-μm) resolution. The cell displacement for each frame, the trajectories of tracked cells (FIG. 13C) as well as the root mean square of the total displacement (FIG. 13F) were calculated. Single cell nanomotions were characterized by plotting the distribution of the displacements per frame as a violin plot (FIG. 13D). The movements of the set of 20 cells were characterized by plotting grouped cellular displacements per frame as violin plots and the total displacements of 20 cells over 1000 frames as box-and-whisker plots (FIG. 13E).
(§3) Ten μl of each yeast cell culture was dispensed in one of the microwells, using a 4 Well FulTrac micro-Insert (ibidi, Germany) in an imaging micro-dish (Ibidi, Germany). The yeast cells were allowed to sediment for a period of 10 min before starting the measurement. The movement of cells was observed by taking movies of 1000 frames with a framerate of 84 fps using an EMCCD camera (Andor iXon, Oxford Instruments) using a Nikon TE-2000 microscope with a 40× objective. The Petri dish was kept at 30° C. using a microscope stage top incubator (ibidi, Germany).
(§4) The effect of ethanol on the viability of the cells was compared with cells grown in YPD medium as a reference. Therefore, first cell nanomotion videos were recorded and next (after approximately 1 min), 200 μl of ethanol (70% v/v) was added to the top chamber of the 4 micro-Insert wells. Videos were recorded every hour during a period of 5 h. Caspofungin, amphotericin B and fluconazole were used as antifungals in the antifungal susceptibility testing, i.e. to assess their effect on cell viability. Before starting the treatment with the antifungal, reference (no treatment) videos were recorded of yeast cells in YPD medium (time=0 h). Then (at time=1 min) 200 μl of a certain concentration of antifungal was added to the chamber (200 μl) above the 4 microwells. Measurements were taken every hour during a period of 5 h. As abiotic reference particles, silica microbeads (monodisperse silica standard, Whitehouse Scientific) with a diameter of 3 μm were used. The beads were dissolved in YPD medium and the measurements were performed at 30° C.
(§5) The optical nanomotion detection algorithm calculates the cell displacement for each frame and saves the trajectories of tracked cells as well as the root mean square of the displacement to a MS Excel file. The main part of the program is based on the algorithm of Guizar-Sicairos et al.[14], ported from Matlab to Python in the open source image processing library sci-kit image. The Python package nd2 reader (Verweij R, Online: http://www.lighthacking.nl/nd2reader/) was employed to import the videos in the ND2 Nikon format.

[2] = test system: C. albicans CAF2-1 wild-type strain; assay: Optical nanomotion detection (ONMD), amphotericin B dose-response; type: cell-based, Candida albicans
Excerpt: as §1, §2, §3
as §4, with “As abiotic reference particles, silica microbeads (monodisperse silica standard, Whitehouse Scientific) with a diameter of 3 μm were used. The beads were dissolved in YPD medium and the measurements were performed at 30° C.” left out
as §5, with “The main part of the program is based on the algorithm of Guizar-Sicairos et al.[14], ported from Matlab to Python in the open source image processing library sci-kit image.” left out

[3] = test system: C. albicans; conditions: cited from earlier work
[4] = test system: Candida lusitaniae DSY4590; conditions: FKS1 S638Y, erg4; ref [7] unpublished; cited from earlier work
[5] = test system: C. albicans DSY1024 (hypersusceptible, mutant for efflux systems); assay: Optical nanomotion detection (ONMD) of free yeast cells, antifungal susceptibility test; type: cell-based, Candida albicans
Excerpt: as §1, §2, §3, §4, §5

[6] = test system: C. albicans DSY4614 (candin-resistant clinical strain); assay: as above; type: cell-based, Candida albicans
Excerpt: as §1, §2, §3, §4, §5

[7] = test system: C. glabrata DSY562; assay: Optical nanomotion detection (ONMD) of free yeast cells; type: cell-based, Candida glabrata
Excerpt: as §1, §2
(§6) Ten μl of each yeast cell culture was dispensed in one of the microwells, using a 4 Well FulTrac micro-Insert (ibidi, Germany) in an imaging micro-dish (Ibidi, Germany). The yeast cells were allowed to sediment for a period of 10 min before starting the measurement. […]
(§7) The effect of ethanol on the viability of the cells was compared with cells grown in YPD medium as a reference. Therefore, first cell nanomotion videos were recorded and next (after approximately 1 min), 200 μl of ethanol (70% v/v) was added to the top chamber of the 4 micro-Insert wells. Videos were recorded every hour during a period of 5 h. […] Before starting the treatment with the antifungal, reference (no treatment) videos were recorded of yeast cells in YPD medium (time=0 h). […]
as §5, with “The main part of the program is based on the algorithm of Guizar-Sicairos et al.[14], ported from Matlab to Python in the open source image processing library sci-kit image.” left out

[8] = test system: C. lusitaniae DSY4590 (resistant clinical strain); assay: as above; type: cell-based, Candida lusitaniae; conditions: caspofungin 10 μg/ml; FIG. 4b left panel
Excerpt: as §1, §2, §6, §7
as §5, with “The main part of the program is based on the algorithm of Guizar-Sicairos et al.[14], ported from Matlab to Python in the open source image processing library sci-kit image.” left out

[9] = test system: C. lusitaniae DSY4606; assay: as above; type: cell-based, Candida lusitaniae
Excerpt: as §1, §2, §6, §7
as §5, with “The main part of the program is based on the algorithm of Guizar-Sicairos et al.[14], ported from Matlab to Python in the open source image processing library sci-kit image.” left out

[10] = test system: S. cerevisiae BY4742; assay: as above; type: cell-based, Saccharomyces cerevisiae
Excerpt: as §1, §2, §3, §4, §5

[11] = test system: S. cerevisiae; conditions: cited from earlier work
[12] = test system: S. cerevisiae; conditions: cited from earlier work; remark: listed apart in the source
[13] = test system: osteoblasts; conditions: AFM-cantilever method; cited from earlier work
[14] = caspofungin 10 μg/ml, surface-attached cells, FIG. 6, 18F-K
[15] = caspofungin treated, pooled from 1-5-hour treatments, FIG. 7d
[16] = ethanol 70%, ten minutes after addition
[17] = ethanol 70% v/v, ten minutes after addition and diffusive mixing, t-test
[18] = ethanol 70%, Wilcoxon test, FIG. 15

With `C[C@@H]1[C@H](O)[C@@H](C)/C=C/C=C/C=C/C=C/C=C/C=C/C=C/[C@H](O[C@@H]2O[C@H](C)[C@@H](O)[C@H](N)[C@@H]2O)C[C@@H]2O[C@](O)(C[C@@H](O)C[C@@H](O)[C@H](O)CC[C@@H](O)C[C@@H](O)CC(=O)O[C@H]1C)C[C@H](O)[C@H]2C(=O)O` [amphotericin B] the “concentration at which the cellular nanomotion is increased, as multiple of MIC” value [1] was “around 10 times the MIC”, the “concentration at which the total displacement shows an increase” value ([1]; after 1 h treatment, FIG. 16F) was 10 µg/mL and the “increase of total displacement after 2 h treatment” value ([1]; after 2 h treatment, FIG. 16G) was “the increase is reduced”. For the same compound, the “nanomotion signal after 1 h treatment” value ([1]; amphotericin B 100 μg/ml, 1 h, FIG. 2d) was “decreased to values close to those recorded on dead cells”, the “time of treatment after which a significant decrease in the mean total displacement was detected” value ([1]; amphotericin B 100 μg/ml, t-test, FIG. 2d) was 1 h and the “time of treatment after which a significant decrease in cellular displacements and total displacement was detected” value ([1]; amphotericin B 500 μg/ml, FIG. 16A, 20A) was 1 h. The “cellular nanomotion after 1 h treatment, whole set of 20 cells” value ([1]; amphotericin B at a high concentration (500 μg/ml), 1 h, FIG. 20A) was “decreased to values close to those recorded on dead cells”, the “concentration at which the cellular nanomotion is increased, as multiple of MIC” value [2] was “around 10 times the MIC” and the “concentration at which the mean total displacement increased” value ([2]; after 1 h treatment, FIG. 2g) was 10 µg/mL. The “concentration at which the mean total displacement increased” value ([2]; after 2 h treatment, FIG. 2h) was 4 µg/mL, the “mean total displacement at higher drug concentrations” value ([2]; concentrations above 10 μg/ml (1 h) or 4 μg/ml (2 h)) was “decreased” and the “MIC value detected by ONMD (lowest concentration where a change in nanomotion can be observed)” value ([2]; total displacement of 20 cells, 'this strain') was 1 to 4 µg/mL. For the same compound, the “reported amphotericin B MIC value, classical microtitre plate method” value ([3]; 'this strain' (CAF2-1 or DSY294, not clear)) was 0.3 µg/mL, the “reported amphotericin B MIC value” ([3]; C. albicans DSY strains) was 0.5 µg/mL and the “susceptibility of the strain (characteristics)” value [4] was “FKS1, S638Y, erg4 Resistant”.
With `CC[C@H](C)C[C@H](C)CCCCCCCCC(=O)N[C@H]1C[C@@H](O)[C@@H](NCCN)NC(=O)[C@@H]2[C@@H](O)CCN2C(=O)[C@H]([C@H](O)CCN)NC(=O)[C@H]([C@H](O)[C@@H](O)c2ccc(O)cc2)NC(=O)[C@@H]2C[C@@H](O)CN2C(=O)[C@H]([C@@H](C)O)NC1=O` [caspofungin] the “killing of cells judged by nanomotion” value ([5]; caspofungin 10 μg/ml, FIG. 2f, 16D) was “did kill”, the “total displacement of cells attached to concanavalin A coated glass, treated versus untreated” value (“total displacement … treated versus untreated” below) [5, 14] was “no significant decrease of the total displacement; also recorded: no significant difference” and the “additional fcrit of treated cells” value [5, 15] was “around 2 Hz”. For the same compound, the “critical frequency (fcrit) distribution of treated cells, extent of broadening” value [5, 15] was “most extended”, the “total displacement … treated versus untreated” value [1, 14] was “no significant decrease of the total displacement; also recorded: no significant difference” and the “time of treatment after which a significant decrease in (mean) total displacement was detected” value ([1]; caspofungin 100 μg/ml, FIG. 2d, 16B) was 1 h. For the same compound, the “critical frequency (fcrit) distribution of treated cells” value [1, 15] was “broadening of their fcrit”, the effect on nanomotion ([6]; caspofungin 10 μg/ml, FIG. 2e, 16E) was “did not affect the nanomotion” and the “total displacement … treated versus untreated” value ([6]; caspofungin 10 μg/ml, surface-attached cells, FIG. 6) was “no significant decrease of the total displacement”. For the same compound, the “critical frequency (fcrit) distribution of treated cells” value [6, 15] was “broadening of their fcrit”, the “time of treatment after which the cells were dead (nanomotion AFST)” value ([7]; caspofungin, FIG. 4a) was 2 h and the “effect of treatment on nanomotion” value [8] was “not affected”. For the same compound, the “killing of cells judged by nanomotion” value ([9]; caspofungin 10 μg/ml, FIG. 4b right panel) was “killed” and the “time of treatment after which a significant decrease of the total displacement was observed” value ([10]; caspofungin 10 μg/ml, FIG. 5a) was 3 h.
In the case of `CCO` [ethanol], the “time of treatment after which a significant decrease of the total displacement was measured” value ([1]; ethanol 70% v/v, t-test, FIG. 2c) was 60 min, the “displacements in the set of 20 cells” value [1, 16] was “reduction of the displacements” and the “change of total displacement” value [7, 17] was “significant (t-test) decrease”. For the same compound, the “time after which a significant decrease of the total displacement was observed” value [7, 18] was 60 min, the “displacements in the set of 20 cells” value [7, 16] was “reduction of the displacements” and the “change of total displacement” value [9, 17] was “significant (t-test) decrease”. For the same compound, the “displacements in the set of 20 cells” value [9, 16] was “reduction of the displacements”, the “change of total displacement” value [10, 17] was “significant (t-test) decrease” and the “time after which a significant decrease of the total displacement was observed” value [10, 18] was 60 min. For the same compound, the “displacements in the set of 20 cells” value [10, 16] was “reduction of the displacements”, the “higher ethanol concentrations that impair the cell membrane integrity, eventually apoptotic cell death” value [11] was > 10% and the “moderate ethanol concentrations that affect the growth rate” value [11] was 5-7%.
With `OC(Cn1cncn1)(Cn1cncn1)c1ccc(F)cc1F` [fluconazole] the “time of treatment after which a significant decrease in (mean) total displacement was detected” value ([1]; fluconazole 400 μg/ml, FIG. 2d, 16C) was 1 h, the “effect on total displacement after 1 h of treatment” value ([10]; fluconazole 400 μg/ml, 1 h, FIG. 5b) was “no effect” and the “time of treatment after which a significant decrease in total displacement was obvious” value ([10]; fluconazole 400 μg/ml, FIG. 5b) was 5 h. For the same compound, the “fluconazole MIC value” [12] was 1 to 8 µg/mL.
For cytochalasin, the “cellular movement after depolymerizing the actin cytoskeleton” value [13] is listed as “reduced cellular movement”.
